Read-outs that look alike come from different tables or passages of the source.
Experiments:
HCT116 cells [1] = assay: viability-based synergy experiment, C1368 and cetuximab, HCT116 cells; format: cell-based, human
DLD1 cells = assay: viability-based synergy experiment, C1368 and erlotinib, DLD1 cells; format: cell-based
Source text: (§1) ED refers to the percentage of cell killed at different drug doses.

HCT116 cells [2] = assay: viability-based synergy experiment, C1368 and erlotinib, HCT116 cells; format: cell-based, human; settings: for fold decrease of IC50 value, combination vs drug alone: C1368:erlotinib 1:25 ratio
Source text: as §1

HCT116 cells [3] = assay: cell cycle analysis of erlotinib-treated HCT116 cells; format: cell-based, human
Source text: Inhibition of Aurora kinase activity is associated with cell cycle arrest.

SMILES	IC50 (HCT116 cells [1]; cetuximab with C1368, 1:109 ratio, read-out: IC50 value in combination) [µM]	IC50 (HCT116 cells [1]; read-out: IC50 value, drug alone (cetuximab experiment), drug alone) [µM]	IC50 (DLD1 cells; DLD1 cells, combination treatment with C1368 and erlotinib, read-out: IC50 in combination) [µM]	IC50 (DLD1 cells; DLD1 cells, single agent, read-out: IC50, single agent) [µM]	fold decrease of IC50 value, combination vs drug alone (HCT116 cells [2]; HCT116 cells) [fold]	IC50 (HCT116 cells [2]; HCT116 cells, combination of C1368 and erlotinib, 1:25 ratio, read-out: IC50 value in combination) [µM]	IC50 (HCT116 cells [2]; HCT116 cells, treatment with either drug alone, read-out: IC50 value, drug alone) [µM]	IC50 (DLD1 cells; Homo sapiens, DLD-1, read-out: IC50 in combination) [µM]	IC50 (DLD1 cells; Homo sapiens, DLD-1, DLD1 cells, single agent, read-out: IC50, single agent) [µM]	IC50 (HCT116 cells [2]; Homo sapiens, HCT-116, read-out: IC50 value in combination) [µM]	IC50 (HCT116 cells [2]; Homo sapiens, HCT-116, HCT116 cells, treatment with either drug alone, read-out: IC50 value, drug alone) [µM]	concentration at which there was a reduction in cell number suggesting cell death (HCT116 cells [3]) [µM]	induction of cell cycle arrest (HCT116 cells [3])
O=C(Nc1cccc(Nc2nccc(Nc3cccc(C(F)(F)F)c3)n2)c1)C1CC1 [C1368]	1	2.1	0.5	2.7	> 4	0.5	2.3						
C#Cc1cccc(Nc2ncnc3cc(OCCOC)c(OCCOC)cc23)c1 [erlotinib]					> 3			13.8	71.7	12.3	37.3	> 50	did not noticeably induce cell cycle arrest

From US20110033461A1, “Combination Therapy for the Treatment of Cancer” (priority 2008, published 2011)
